Assay results reported in patent publication US12172965B2, “Drug conjugate comprising quinoline derivatives” (UNIVERSITE PARIS-SACLAY, priority 2018, dated 2024).
Read-outs that look alike come from different tables or passages of the source.

What was measured:
HCT116 cell line = settings: comparison of molecules Ia and Ib; cited from earlier work
[1] = tested on: HCT116 (colorectal tumour); assay: Antiproliferative activity (IC50), CellTiter Glo, HCT116; type: cell-based, human; settings: for IC50: Homo sapiens, HCT-116
Text: (§1) The IC50 (as per accepted terminology) activities of the compounds according to the invention 4-((3-amino-4-methoxyphenyl)(methyl)amino) quinoline-2-carbonitrile (ICQN-1); 5-(5-((2-cyanoquinolin-4-yl)(methyl)amino)-2-methoxyphenyl)-N-hydroxypent-4-ynamide (ICQN-2); and (E)-3-(5-((2-cyanoquinolin-4-yl)(methyl)amino)-2-methoxyphenyl)-N-hydroxyacrylamide (ICQN-3) were compared with compounds of the prior art and with a commercial and clinical reference compound, in particular MMAE (monomethylauristatin E). The IC50 activities were measured on various different cancer cell lines HCT116 (colorectal tumour), A549 (non-small cell lung cancer), NCI-N87 (gastric tumour), Mia-Paca-2 (pancreatic tumour), K562R (chronic myeloid leukemia), SKOV3 (ovarian tumour), SKBr3 (breast tumour, Her2 overexpression), MCF7 (breast tumour) and MDA-MB231 (breast tumour).
(§2) The cancer cell lines were obtained from the American Culture Collection (ATCC, Rockville, MD) or from the German collection of microorganisms and cell cultures of the Leibniz Institute (DSMZ, Braunschweig-Germany) or from the European collection of cell cultures (ECACC, England). The cancer cell lines were cultured according to the supplier's instructions.
(§3) The HCT-116 human colorectal carcinoma, SK-BR3 breast carcinoma, and SK-OV-3 ovarian carcinoma cells were cultured in Gibco McCoy's 5A medium supplemented with 10% foetal calf serum (FCS) and 1% glutamine.
(§4) The cells were counted using a Vi-cell XR (Beckman Coulter) and the cell viability was assessed by using 0.25% trypan blue dye exclusion assay. The cells were tested for the presence of mycoplasmas prior to the experiments with the Mycoplasma PCR detection kit (Applied Biological Materials Inc., Canada) according to the manufacturer's instructions, and only mycoplasma-free cells were used for the study. The cell lines were maintained at 37° C. in a humidified atmosphere containing 5% CO2.
(§5) After 24 hours of culturing, the cells were treated with the tested compounds at 10 different final concentrations. Each concentration was obtained from serial dilutions in culture medium starting from the stock solution. The control cells were treated with the carrier. The experiments were carried out in triplicate.
(§6) The measurements were performed after 72 hours of treatment using the CellTiter Glo assay (Promega) which makes it possible to measure through bioluminescence (quantification of adenosine triphosphate—ATP) the number of living cells, by using a PolarStar Omega microplate reader (BMG-Labtech).
(§7) The dose-response curves were plotted with the Graph Prism software application and the IC50 values were calculated using the Graph Prism software based on polynomial curves (four or five parameter logistic equations).

[2] = tested on: A549 (non-small cell lung cancer); assay: Antiproliferative activity (IC50), CellTiter Glo, A549; type: cell-based; settings: for IC50: Homo sapiens, A549
Text: as §1, §2
(§8) The A549 lung carcinoma cells, K562R myeloid leukemia cells, and the NCI-N87 gastric carcinoma cells were cultured in Gibco Roswell Park Memorial Institute (RPMI) 1640 medium supplemented with 10% foetal calf serum (FCS) and 1% glutamine. The Mia-Paca2 carcinoma cells were cultured in Gibco Dulbecco's Modified Eagle Medium (DMEM) supplemented with 10% foetal calf serum (FCS) and 1% glutamine.
as §4, §5, §6, §7

NCI-N87 (gastric tumour) = assay: Antiproliferative activity (IC50), CellTiter Glo, NCI-N87; type: cell-based; settings: for IC50: Homo sapiens, NCI-N87
Text: as §1, §2, §8, §4, §5, §6, §7

[3] = tested on: Mia-Paca-2 (pancreatic tumour); assay: Antiproliferative activity (IC50), CellTiter Glo, Mia-Paca-2; type: cell-based; settings: for IC50: Homo sapiens, MIA PaCa-2
Text: as §1, §2, §8, §4, §5, §6, §7

[4] = tested on: K562R (chronic myeloid leukemia); assay: Antiproliferative activity (IC50), CellTiter Glo, K562R; type: cell-based; settings: for IC50: Homo sapiens, K-562R
Text: as §1, §2, §8, §4, §5, §6, §7
The K562R (chronic myeloid leukemia) cells have an MDR profile that allows them to be resistant to several chemotherapeutic compounds including the reference compound MMAE.

SKOV3 (ovarian tumour) = assay: Antiproliferative activity (IC50), CellTiter Glo, SKOV3; type: cell-based, human; settings: for IC50: Homo sapiens, SK-OV-3
Text: as §1, §2, §3, §4, §5, §6, §7

[5] = tested on: SKBr3 (breast tumour, Her2 overexpression); assay: Antiproliferative activity (IC50), CellTiter Glo, SKBr3; type: cell-based, human; settings: for IC50: Homo sapiens, SK-BR-3
Text: as §1, §2, §3, §4, §5, §6, §7

MCF7 (breast tumour) = assay: Antiproliferative activity (IC50), CellTiter Glo, MCF7; type: cell-based; settings: unconjugated
Text: as §1, §2
(§9) The breast adenocarcinoma cells MDA-MB231 and MCF7 were cultured in Gibco RPMI 1640 culture medium supplemented with 10% foetal calf serum (FCS) and 1% glutamine.
as §4, §5, §6, §7

[6] = tested on: MDA-MB231 (breast tumour); assay: Antiproliferative activity (IC50), CellTiter Glo, MDA-MB231; type: cell-based; settings: unconjugated
Text: as §1, §2, §9, §4, §5, §6, §7

MDA-MB-231 cell line = settings: published by Chen et al.; read-out: IC50 over the MDA-MB-231 cell line; cited from earlier work
[7] = comparative data 13b / ICQN-1, unit inferred, read-out: HCT116 (antiproliferative activity, Table 3)
[8] = ratio versus MMAE, unconjugated
[9] = ratio versus prior-art payload ICQO-1
[10] = comparative data 13b / ICQN-1, unit inferred, read-out: A549 (antiproliferative activity, Table 3)
[11] = comparative data 13b / ICQN-1, unit inferred, read-out: NCI-N87 (antiproliferative activity, Table 3)
[12] = free, unconjugated, 72 hours of treatment, read-out: NIC-N87 IC50
[13] = nM given only in VB118 cells, read-out: NCI-N87 (antiproliferative activity, Table 6)
[14] = comparative data 13b / ICQN-1, unit inferred, read-out: Mia-Paca2 (antiproliferative activity, Table 3)
[15] = free, unconjugated, 72 hours of treatment, read-out: Mia-Paca-2 IC50
[16] = nM given only in VB118 cells, read-out: Mia-Paca-2 (antiproliferative activity, Table 6)
[17] = comparative data 13b / ICQN-1, unit inferred, read-out: K562R (antiproliferative activity, Table 3)
[18] = free, unconjugated, 72 hours of treatment, read-out: K562R IC50
[19] = nM given only in VB118 cells, read-out: K562R (antiproliferative activity, Table 6)
[20] = resistant cancer cells, MDR profile
[21] = comparative data 13b / ICQN-1, unit inferred, read-out: SKOV3 (antiproliferative activity, Table 3)
[22] = free, unconjugated, 72 hours of treatment, read-out: SKOV3 IC50
[23] = nM given only in VB118 cells, read-out: SKOV-3 (antiproliferative activity, Table 6)
[24] = comparative data 13b / ICQN-1, unit inferred, read-out: SKBr3 (antiproliferative activity, Table 3)
[25] = free, unconjugated, 72 hours of treatment, read-out: SKBr3 IC50
[26] = nM given only in VB118 cells, read-out: SKBR3 (antiproliferative activity, Table 6)

With `CN(c1ccc2c(c1)c1ccccc1n2C)c1cc(C#N)nc2ccccc12` [Ib] as the compound, how does the “drop in cytotoxic activity (factor) on replacing Me by CN at position 2 of quinoline” value (HCT116 cell line) read?
Its value is 170.

For `COc1ccc(N(C)c2cc(C#N)nc3ccccc23)cc1N` [ICQN-1, 4-((3-amino-4-methoxyphenyl)(methyl)amino) quinoline-2-carbonitrile], which IC50 [1, 7] is on record?
Its IC50 is 0.23 nM.

And the IC50 ([1]; free, unconjugated, 72 hours of treatment, read-out: HCT116 IC50)?
Its IC50 is 0.23 nM.

And the “IC50 ratio MMAE/ICQN-1 (fold potency of ICQN-1 over MMAE), HCT116” value [1, 8]?
The value was 7.

And the “Ratio of activity 13b vs ICQN-1, HCT116” value ([1]; ratio versus compound 13b)?
The value was about 10.

What about the “IC50 ratio ICQN-1 vs ICQO-1, HCT-116” value [1, 9] of the same compound?
The value was 44.

What about the IC50 [2, 10] of the same compound?
Its IC50 is 0.72 nM.

And the IC50 ([2]; free, unconjugated, 72 hours of treatment, read-out: A549 IC50)?
Its IC50 is 0.72 nM.

What about the “Potency ratio of ICQN-1 vs MMAE (MMAE IC50 / ICQN-1 IC50), A549” value [2, 8] of the same compound?
The value was 6.

And the “Ratio of activity 13b vs ICQN-1, A549” value ([2]; ratio versus compound 13b)?
Its value is 1.

What about the IC50 (NCI-N87 (gastric tumour); [11]) of the same compound?
The IC50 was 0.3 nM.

What about the IC50 (NCI-N87 (gastric tumour); [12]) of the same compound?
The IC50 was 0.3 nM.

What about the IC50 (NCI-N87 (gastric tumour); [13]) of the same compound?
The IC50 was 0.3 nM.

What about the “IC50 Ratio ICQN1/MMAE, NCI-N87” value (NCI-N87 (gastric tumour); [8]) of the same compound?
The value was 22.

And the “Ratio of activity 13b vs ICQN-1, NCI-N87” value (NCI-N87 (gastric tumour); ratio versus compound 13b)?
The value was 15.

What about the IC50 [3, 14] of the same compound?
The IC50 was 0.49 nM.

What about the IC50 [3, 15] of the same compound?
Its IC50 is 0.49 nM.

And the IC50 [3, 16]?
Its IC50 is 0.49 nM.

And the “IC50 Ratio ICQN1/MMAE, Mia-Paca-2” value [3, 8]?
The value was 6.

What about the “Ratio of activity 13b vs ICQN-1, Mia-Paca2” value ([3]; ratio versus compound 13b) of the same compound?
Its value is 2.

And the IC50 [4, 17]?
Its IC50 is 0.47 nM.

And the IC50 [4, 18]?
The IC50 was 0.47 nM.

What about the IC50 [4, 19] of the same compound?
Its IC50 is 0.47 nM.

And the IC50 ([4]; resistant cancer cells, MDR profile, read-out: K562R (PgP+) IC50)?
Its IC50 is 0.47 nM.

And the “Ratio of activity 13b vs ICQN-1, K562R” value ([4]; ratio versus compound 13b)?
The value was 8.

What about the “Ratio vs ICQO-1, K562R (PgP+)” value [4, 20] of the same compound?
Its value is 4.2.

And the “Ratio vs MMAE, K562R (PgP+)” value [4, 20]?
Its value is 74.

What about the IC50 (SKOV3 (ovarian tumour); [21]) of the same compound?
Its IC50 is 0.44 nM.

And the IC50 (SKOV3 (ovarian tumour); [22])?
Its IC50 is 0.44 nM.

What about the IC50 (SKOV3 (ovarian tumour); [23]) of the same compound?
Its IC50 is 0.44 nM.

What about the “Ratio of activity 13b vs ICQN-1, SKOV3” value (SKOV3 (ovarian tumour); ratio versus compound 13b) of the same compound?
The value was 3.

What about the “IC50 ratio ICQN-1 vs ICQO-1, SKOV-3” value (SKOV3 (ovarian tumour); [9]) of the same compound?
The value was 3.

And the IC50 [5, 24]?
Its IC50 is 0.36 nM.

What about the IC50 [5, 25] of the same compound?
The IC50 was 0.36 nM.

And the IC50 [5, 26]?
The IC50 was 0.36 nM.

And the “Ratio of activity 13b vs ICQN-1, SKBr3” value ([5]; ratio versus compound 13b)?
Its value is 6.

What about the IC50 (MCF7 (breast tumour); Homo sapiens, MCF7, free, 72 hours of treatment, read-out: MCF7 CI50) of the same compound?
The IC50 was 0.17 nM.

And the “IC50 Ratio ICQN1/MMAE, MCF7” value (MCF7 (breast tumour); ratio versus MMAE)?
The value was 3.

And the IC50 ([6]; Homo sapiens, MDA-MB-231, free, 72 hours of treatment, read-out: MDA-MB231 CI50)?
The IC50 was 0.34 nM.

What about the “IC50 Ratio ICQN1/MMAE, MDA-MB231” value ([6]; ratio versus MMAE) of the same compound?
The value was 4.

Which results are given for `CCOc1ccc(N(C)c2cc(C#N)nc3ccccc23)cc1N` [ICQN-2, 4-((3-amino-4-ethoxyphenyl)(methyl)amino)quinoline-2-carbonitrile]?
IC50 (NCI-N87 (gastric tumour); [12]): 0.93 nM; IC50 (NCI-N87 (gastric tumour); [13]): 0.93 nM; IC50 [3, 15]: 0.29 nM; IC50 [3, 16]: 0.29 nM; IC50 [4, 18]: 0.36 nM; IC50 [4, 19]: 0.36 nM; IC50 (SKOV3 (ovarian tumour); [22]): 0.59 nM; IC50 (SKOV3 (ovarian tumour); [23]): 0.59 nM; IC50 [5, 25]: 0.38 nM; IC50 [5, 26]: 0.38 nM

With `COc1ccc(N(C)c2cc(C)nc3ccccc23)cc1N` [Compound 13b, reference compound] as the compound, how does the IC50 [1, 7] read?
The IC50 was 2.15 nM.

And the IC50 [2, 10]?
The IC50 was 0.68 nM.

And the IC50 (NCI-N87 (gastric tumour); [11])?
The IC50 was 4.36 nM.

What about the IC50 [3, 14] of the same compound?
Its IC50 is 0.92 nM.

And the IC50 [4, 17]?
Its IC50 is 3.59 nM.

What about the IC50 (SKOV3 (ovarian tumour); [21]) of the same compound?
Its IC50 is 1.28 nM.

What about the IC50 [5, 24] of the same compound?
Its IC50 is 2.17 nM.

And the IC50 (MDA-MB-231 cell line)?
Its IC50 is 3.2 nM.
